The source of these data is PubChem BioAssay (NCI).

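The compound was tested at five concentrations on cells cultured in 96-well plates, with a 48-hour exposure period. GI50 marks 50% less growth. TGI: concentration producing complete growth inhibition.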

What all share (test): NCI tumour cell line growth inhibition, 48 h
The test system of assay [1] is NCI-H460 lung.
Assay [2] deals with PC-3 prostate.
Assay [3] has as its system SK-OV-3 ovarian.
Assay [4] has as its system SNB-75 CNS.
Assay [5] relates to T-47D breast.

In the case of `CN1C(=O)c2cc(Cl)nc3c(NC(=O)c4cccc(Cl)c4)c(Cl)c(NC(=O)c4cccc(Cl)c4)c1c23`, the GI50 in assay [1] was 2.34 µM; in assay [2], 1.93 µM; in assay [3], 4.98 µM; in assay [4], 1.45 µM; in assay [5], 1.77 µM. Besides, the TGI in assay [1] worked out at 5.17 µM; in assay [2], 3.99 µM; in assay [3], 17.4 µM; in assay [4], 2.84 µM; in assay [5], 4.32 µM.

As for `COc1cc2oc3ccccc3c(=O)c2cc1CSc1ccccc1N`, the TGI in assay [1] is greater than 100 µM; in assay [2], greater than 100 µM; in assay [3] it was greater than 100 µM; in assay [4] it was greater than 100 µM; in assay [5] it was 27.8 µM.

Take `COc1ccc(C[C@H]2C[C@@H](O)[C@@H](C)C/C=C/Cc3cccc(O)c3C(=O)O2)cn1`: the GI50 was 22.7 µM in assay [1], 45.6 µM in assay [3], 17 µM in assay [4] and 33.1 µM in assay [5]. In addition, the TGI was 96.3 µM in assay [1], greater than 100 µM in assay [3], 73.4 µM in assay [4] and greater than 100 µM in assay [5].

With `N#CC1c2ccccc2-c2ccccc2N1C(=O)c1ccccc1` (stereo not drawn), the GI50 in assay [1] is 3.06 µM; in assay [2], 6.86 µM; in assay [3], 4.36 µM; in assay [4], 2.43 µM; in assay [5], 25.7 µM. Also, the TGI in assay [1] is 10.9 µM; in assay [2], greater than 100 µM; in assay [3], greater than 45.2 µM; in assay [4] it was greater than 49.4 µM; in assay [5], greater than 100 µM.

`CC(CC(=O)O)(CC(=O)O)C(=O)O`: the TGI in assay [1], in assay [2], in assay [3], in assay [4] and in assay [5] was greater than 100 µM each time.

In the case of `O=C1c2ccccc2-c2cc3ccccc3c(=O)n21`, the TGI in assay [1], in assay [2], in assay [4] and in assay [5] was greater than 100 µM in each case.

As for `Cc1ccc(C2=Nc3c(N)ncnc3NC(c3cccc(Nc4ccnc5cc(C(F)(F)F)ccc45)c3)C2)cc1` (stereo not drawn), the GI50 in assay [1] was 3.07 µM; in assay [2] it was 2.8 µM; in assay [3] it was 5.93 µM; in assay [5], 4.45 µM. Also, the TGI in assay [1] was 10.5 µM; in assay [2], 12.5 µM; in assay [3], 51 µM; in assay [5], greater than 100 µM.

Consider `O=c1oc(-c2ccc(O)c(O)c2)cc2cc(O)cc(O)c12`, for which the GI50 is 31 µM in assay [1], 31.6 µM in assay [2], greater than 100 µM in assay [3] and 54.5 µM in assay [5]. For the same compound, the TGI in assay [1], in assay [2], in assay [3] and in assay [5] was greater than 100 µM each time.

Take `CC(CS(=O)(=O)Cc1ccccc1)C(N)=O` (stereo not drawn): the TGI in assay [1], in assay [2], in assay [3] and in assay [5] was greater than 100 µM each time.

Take `COc1cc(C2C3=C(COC3=O)N(CCO)c3cc4c(cc32)CCC4)cc(OC)c1O` (stereo not drawn): the GI50 was 0.114 µM in assay [1], 0.203 µM in assay [2], 0.168 µM in assay [3] and 0.141 µM in assay [5]. Moreover, the TGI in assay [1] is 6.65 µM; in assay [2], greater than 32.5 µM; in assay [3], greater than 32.5 µM; in assay [5] it was greater than 32.5 µM.

Take `O=C1c2cccnc2C(=O)c2c1c(C(=O)OCCCN1CCOCC1)c1ccccn21`: the GI50 in assay [2] is 0.0147 µM; in assay [4], less than 0.01 µM; in assay [5], 0.178 µM. Also, the results for the TGI in assay [2], in assay [4] and in assay [5] were 4.94 µM, 0.015 µM and 5.94 µM, respectively.

`COC(=O)c1cc(Nc2ccc(O)c3c2C(=O)c2c([N+](=O)[O-])ccc(O)c2C3=O)cc(C(=O)OC)c1`: the GI50 is 3.32 µM in assay [1], 13.5 µM in assay [2], greater than 100 µM in assay [3] and 4.78 µM in assay [5]. For the same compound, the TGI in assay [1] was 18.9 µM; in assay [2], greater than 100 µM; in assay [3] it was greater than 100 µM; in assay [5], greater than 100 µM.

Consider `Cc1ccc([P+](Cc2ccc([N+](=O)[O-])cc2)(c2ccc(C)cc2)c2ccc(C)cc2)cc1`, for which the GI50 was 4.26 µM in assay [1], 2.64 µM in assay [2], 12 µM in assay [3] and 1.99 µM in assay [4]. In addition, the TGI in assay [1] came out at 16.8 µM; in assay [2] it was 14.3 µM; in assay [3], 25.2 µM; in assay [4], 8.77 µM.

In the case of `CC[C@@]1(OC(=O)CN)C(=O)OCc2c1cc1n(c2=O)Cc2cc3cc(N)ccc3nc2-1`, the GI50 is less than 0.01 µM in assay [1], 0.0711 µM in assay [2], less than 0.017 µM in assay [4] and less than 0.0359 µM in assay [5]. For the same compound, the TGI in assay [2] and in assay [5] was greater than 100 µM in each case.

Consider `COc1ccc(C2=CC(c3cc(OC)c(OC)c(OC)c3)n3ncnc3N2)cc1` (stereo not drawn), for which the GI50 in assay [1] was 0.0418 µM; in assay [2] it was 0.0536 µM; in assay [3] it was 0.0513 µM. In addition, the TGI was 13.7 µM in assay [1], greater than 100 µM in assay [2] and 27 µM in assay [3].

As to `CC[C@]12C=CCN3CC[C@]4(C(=C(C(=O)OC)C1)Nc1cc(O)ccc14)[C@@H]32`, the GI50 was 18.9 µM in assay [1], 21.2 µM in assay [2], 7.38 µM in assay [4] and 22.4 µM in assay [5]. The TGI in assay [1] is 38.5 µM; in assay [2], 50.5 µM; in assay [4], 40.2 µM; in assay [5], 87.7 µM.

As to `CN1CCCC1c1cccnc1.O=C(O)c1ccccc1O.O=C([O-])c1ccccc1[OH2+].O=C([O-])c1ccccc1[OH2+].O=C([O-])c1ccccc1[OH2+].[Mn+2]` (stereo not drawn), the GI50 in assay [2] is 95.5 µM; in assay [3] it was greater than 100 µM; in assay [4], greater than 100 µM; in assay [5], greater than 100 µM. For the same compound, the TGI in assay [2], in assay [3], in assay [4] and in assay [5] was greater than 100 µM each time.

As for `O=C(Oc1c(I)ccccc1=O)c1ccc([N+](=O)[O-])cc1`, the TGI came to 23.5 µM in assay [1], 75.1 µM in assay [2] and 1.33 µM in assay [5].
